Assay results taken from the NIST ThermoML archive (doi:10.1016/j.jct.2012.06.012).
Numbers after ± are expanded uncertainties.

Test: xn = mol fraction of the nth substance listed
Conditions: Liquid, Vibrating tube method

## CCCCCCCCCC [decane] + CCO
313.09 K, 11000 kPa, x2 = 0.0937
  mass density: 723.62 ± 0.34 kg/m3
313.09 K, 12000 kPa, x2 = 0.0937
  mass density: 724.43 ± 0.36 kg/m3
313.09 K, 13000 kPa, x2 = 0.0937
  mass density: 725.25 ± 0.37 kg/m3
313.09 K, 14000 kPa, x2 = 0.0937
  mass density: 726.06 ± 0.38 kg/m3
313.09 K, 15000 kPa, x2 = 0.0937
  mass density: 726.84 ± 0.4 kg/m3
313.09 K, 16000 kPa, x2 = 0.0937
  mass density: 727.61 ± 0.41 kg/m3
313.09 K, 17000 kPa, x2 = 0.0937
  mass density: 728.37 ± 0.42 kg/m3
313.09 K, 18000 kPa, x2 = 0.0937
  mass density: 729.11 ± 0.43 kg/m3
313.09 K, 19000 kPa, x2 = 0.0937
  mass density: 729.84 ± 0.45 kg/m3
313.09 K, 20000 kPa, x2 = 0.0937
  mass density: 730.54 ± 0.46 kg/m3
313.11 K, 1000 kPa, x2 = 0.2507
  mass density: 717.71 ± 0.21 kg/m3
313.11 K, 2000 kPa, x2 = 0.2507
  mass density: 718.61 ± 0.23 kg/m3
313.11 K, 3000 kPa, x2 = 0.2507
  mass density: 719.5 ± 0.24 kg/m3
313.11 K, 4000 kPa, x2 = 0.2507
  mass density: 720.38 ± 0.25 kg/m3
313.11 K, 5000 kPa, x2 = 0.2507
  mass density: 721.25 ± 0.26 kg/m3
313.11 K, 6000 kPa, x2 = 0.2507
  mass density: 722.07 ± 0.28 kg/m3
313.11 K, 7000 kPa, x2 = 0.2507
  mass density: 722.9 ± 0.29 kg/m3
313.11 K, 8000 kPa, x2 = 0.2507
  mass density: 723.74 ± 0.3 kg/m3
313.11 K, 9000 kPa, x2 = 0.2507
  mass density: 724.57 ± 0.32 kg/m3
313.11 K, 10000 kPa, x2 = 0.2507
  mass density: 725.41 ± 0.33 kg/m3
313.11 K, 11000 kPa, x2 = 0.2507
  mass density: 726.25 ± 0.34 kg/m3
313.11 K, 12000 kPa, x2 = 0.2507
  mass density: 727.08 ± 0.35 kg/m3
313.11 K, 13000 kPa, x2 = 0.2507
  mass density: 727.91 ± 0.37 kg/m3
313.11 K, 14000 kPa, x2 = 0.2507
  mass density: 728.72 ± 0.38 kg/m3
313.11 K, 15000 kPa, x2 = 0.2507
  mass density: 729.52 ± 0.39 kg/m3
313.11 K, 16000 kPa, x2 = 0.2507
  mass density: 730.3 ± 0.4 kg/m3
313.11 K, 17000 kPa, x2 = 0.2507
  mass density: 731.07 ± 0.42 kg/m3
313.11 K, 18000 kPa, x2 = 0.2507
  mass density: 731.81 ± 0.43 kg/m3
313.11 K, 19000 kPa, x2 = 0.2507
  mass density: 732.55 ± 0.44 kg/m3
313.11 K, 20000 kPa, x2 = 0.2507
  mass density: 733.26 ± 0.45 kg/m3
322.98 K, 1000 kPa, x2 = 0.4963
  mass density: 715.95 ± 0.21 kg/m3
322.98 K, 2000 kPa, x2 = 0.4963
  mass density: 716.92 ± 0.23 kg/m3
322.98 K, 3000 kPa, x2 = 0.4963
  mass density: 717.88 ± 0.24 kg/m3
322.98 K, 4000 kPa, x2 = 0.4963
  mass density: 718.83 ± 0.25 kg/m3
322.98 K, 5000 kPa, x2 = 0.4963
  mass density: 719.75 ± 0.26 kg/m3
322.98 K, 6000 kPa, x2 = 0.4963
  mass density: 720.66 ± 0.28 kg/m3
322.98 K, 7000 kPa, x2 = 0.4963
  mass density: 721.56 ± 0.29 kg/m3
322.98 K, 8000 kPa, x2 = 0.4963
  mass density: 722.48 ± 0.3 kg/m3
322.98 K, 9000 kPa, x2 = 0.4963
  mass density: 723.39 ± 0.32 kg/m3
322.98 K, 10000 kPa, x2 = 0.4963
  mass density: 724.3 ± 0.33 kg/m3
322.98 K, 11000 kPa, x2 = 0.4963
  mass density: 725.2 ± 0.34 kg/m3
322.98 K, 12000 kPa, x2 = 0.4963
  mass density: 726.08 ± 0.35 kg/m3
322.98 K, 13000 kPa, x2 = 0.4963
  mass density: 726.98 ± 0.37 kg/m3
322.98 K, 14000 kPa, x2 = 0.4963
  mass density: 727.85 ± 0.38 kg/m3
322.98 K, 15000 kPa, x2 = 0.4963
  mass density: 728.71 ± 0.39 kg/m3
322.98 K, 16000 kPa, x2 = 0.4963
  mass density: 729.56 ± 0.4 kg/m3
322.98 K, 17000 kPa, x2 = 0.4963
  mass density: 730.39 ± 0.42 kg/m3
322.98 K, 18000 kPa, x2 = 0.4963
  mass density: 731.19 ± 0.43 kg/m3
322.98 K, 19000 kPa, x2 = 0.4963
  mass density: 731.99 ± 0.44 kg/m3
322.98 K, 20000 kPa, x2 = 0.4963
  mass density: 732.78 ± 0.45 kg/m3
322.99 K, 1000 kPa, x2 = 0.0937
  mass density: 707.2 ± 0.22 kg/m3
322.99 K, 1000 kPa, x2 = 0.9014
  mass density: 745.03 ± 0.2 kg/m3
322.99 K, 2000 kPa, x2 = 0.0937
  mass density: 708.15 ± 0.23 kg/m3
322.99 K, 2000 kPa, x2 = 0.9014
  mass density: 746.04 ± 0.21 kg/m3
322.99 K, 3000 kPa, x2 = 0.0937
  mass density: 709.09 ± 0.24 kg/m3
322.99 K, 3000 kPa, x2 = 0.9014
  mass density: 747.05 ± 0.22 kg/m3
322.99 K, 4000 kPa, x2 = 0.0937
  mass density: 710.01 ± 0.26 kg/m3
322.99 K, 4000 kPa, x2 = 0.9014
  mass density: 748.04 ± 0.23 kg/m3
322.99 K, 5000 kPa, x2 = 0.0937
  mass density: 710.92 ± 0.27 kg/m3
322.99 K, 5000 kPa, x2 = 0.9014
  mass density: 749.01 ± 0.24 kg/m3
322.99 K, 6000 kPa, x2 = 0.0937
  mass density: 711.82 ± 0.29 kg/m3
322.99 K, 6000 kPa, x2 = 0.9014
  mass density: 749.97 ± 0.25 kg/m3
322.99 K, 7000 kPa, x2 = 0.0937
  mass density: 712.7 ± 0.3 kg/m3
322.99 K, 7000 kPa, x2 = 0.9014
  mass density: 750.92 ± 0.26 kg/m3
322.99 K, 8000 kPa, x2 = 0.0937
  mass density: 713.57 ± 0.31 kg/m3
322.99 K, 8000 kPa, x2 = 0.9014
  mass density: 751.88 ± 0.28 kg/m3
322.99 K, 9000 kPa, x2 = 0.0937
  mass density: 714.44 ± 0.33 kg/m3
322.99 K, 9000 kPa, x2 = 0.9014
  mass density: 752.84 ± 0.29 kg/m3
322.99 K, 10000 kPa, x2 = 0.0937
  mass density: 715.32 ± 0.34 kg/m3
322.99 K, 10000 kPa, x2 = 0.9014
  mass density: 753.79 ± 0.3 kg/m3
322.99 K, 11000 kPa, x2 = 0.0937
  mass density: 716.18 ± 0.35 kg/m3
322.99 K, 11000 kPa, x2 = 0.9014
  mass density: 754.74 ± 0.31 kg/m3
322.99 K, 12000 kPa, x2 = 0.0937
  mass density: 717.04 ± 0.37 kg/m3
322.99 K, 12000 kPa, x2 = 0.9014
  mass density: 755.67 ± 0.32 kg/m3
322.99 K, 13000 kPa, x2 = 0.0937
  mass density: 717.9 ± 0.38 kg/m3
322.99 K, 13000 kPa, x2 = 0.9014
  mass density: 756.6 ± 0.33 kg/m3
322.99 K, 14000 kPa, x2 = 0.0937
  mass density: 718.73 ± 0.39 kg/m3
322.99 K, 14000 kPa, x2 = 0.9014
  mass density: 757.52 ± 0.34 kg/m3
322.99 K, 15000 kPa, x2 = 0.0937
  mass density: 719.56 ± 0.4 kg/m3
322.99 K, 15000 kPa, x2 = 0.9014
  mass density: 758.41 ± 0.35 kg/m3
322.99 K, 16000 kPa, x2 = 0.0937
  mass density: 720.37 ± 0.42 kg/m3
322.99 K, 16000 kPa, x2 = 0.9014
  mass density: 759.31 ± 0.36 kg/m3
322.99 K, 17000 kPa, x2 = 0.0937
  mass density: 721.18 ± 0.43 kg/m3
322.99 K, 17000 kPa, x2 = 0.9014
  mass density: 760.18 ± 0.37 kg/m3
322.99 K, 18000 kPa, x2 = 0.0937
  mass density: 721.95 ± 0.44 kg/m3
322.99 K, 18000 kPa, x2 = 0.9014
  mass density: 761.04 ± 0.38 kg/m3
322.99 K, 19000 kPa, x2 = 0.0937
  mass density: 722.72 ± 0.46 kg/m3
322.99 K, 19000 kPa, x2 = 0.9014
  mass density: 761.88 ± 0.4 kg/m3
322.99 K, 20000 kPa, x2 = 0.0937
  mass density: 723.46 ± 0.47 kg/m3
322.99 K, 20000 kPa, x2 = 0.9014
  mass density: 762.71 ± 0.41 kg/m3
